Test systems include M14; NCI/ADR-RES; EKVX; SK-MEL-5; SK-MEL-28; SF-268; U-251; NCI-H226; MOLT-4; HCT-116; SNB-75; SR; SF-539; Malme-3M; NCI-H23; BT-549; UACC-62; T47D; HCT-15.
What all share (assay): inhibition of tumour cell growth, NCI panel, 48 h

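These data come from cells grown in 96-well plates and exposed to compound for 48 hours at five concentrations. GI50 is the concentration that inhibits growth by half.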 Active and inactive are the calls of the source. Cut-off read from the data, not from the text of the source: active = GI50 up to about 1.1 µM and inactive = higher.

On to `COc1ccc(/N=N\c2c(N)nn3c(SC)c(C#N)c(N)nc23)cc1`, for which the GI50 in the assay with M14 is 12.6 µM (inactive); in the assay with NCI/ADR-RES it was 23.4 µM (inactive); in the assay with EKVX, 3.93 µM (inactive); in the assay on SK-MEL-5, 16.1 µM (inactive); with SK-MEL-28, 6.5 µM (inactive); in the assay on SF-268 it was 3.21 µM (inactive). For the same compound, the GI50 with U-251 was 5.43 µM (inactive); in the assay on NCI-H226, 21.4 µM (inactive); with MOLT-4, 2.61 µM (inactive); with HCT-116 it was 7.74 µM (inactive); in the assay on SNB-75 it was 17.8 µM (inactive); in the assay with SR it was 2.44 µM (inactive). For the same compound, the GI50 in the assay on SF-539 is 19 µM (inactive); with Malme-3M, 16.2 µM (inactive); with NCI-H23 it was 5.55 µM (inactive); in the assay with BT-549 it was 14.9 µM (inactive); in the assay with UACC-62, 5.71 µM (inactive); with T47D, 1.85 µM (inactive). The compound further had a GI50 with HCT-15 of 8.61 µM.
Consider `CC(=O)O[C@H]1CC[C@@]2(C)C(=CC[C@H]3[C@@H]4C/C(=C\c5ccncc5)[C@H](OC(C)=O)[C@@]4(C)CC[C@@H]32)C1`, for which the GI50 in the assay on M14 was 10.9 µM (inactive); in the assay on NCI/ADR-RES it was 4.34 µM (inactive); in the assay with EKVX it was 9.55 µM (inactive); in the assay with SK-MEL-5, 5.47 µM (inactive); with SK-MEL-28, 5.74 µM (inactive); in the assay with SF-268, 10.9 µM (inactive). Moreover, the GI50 in the assay with U-251 is 10 µM (inactive); with NCI-H226 it was 11.8 µM (inactive); in the assay on MOLT-4, 3.04 µM (inactive); with HCT-116 it was 11.9 µM (inactive); in the assay with SNB-75, 7.62 µM (inactive); with SR, 2.7 µM (inactive). Further, the GI50 with SF-539 was 3.95 µM (inactive); in the assay with Malme-3M, 7.67 µM (inactive); with NCI-H23, 4.56 µM (inactive); in the assay on BT-549, 3.28 µM (inactive); with UACC-62 it was 13.2 µM (inactive); in the assay with T47D it was 14.2 µM (inactive). In the assay on HCT-15, this compound gave a GI50 of 3.45 µM.
For the compound `COc1ccc(C(C)NNC(=O)c2ccncc2)cc1F` (stereo unspecified), the GI50 in the assay on M14, in the assay on NCI/ADR-RES, in the assay on EKVX, in the assay on SK-MEL-5, in the assay with SK-MEL-28 and in the assay on SF-268 was > 100 µM (inactive) in each case. Besides, the GI50 with U-251, in the assay on NCI-H226, in the assay on MOLT-4, in the assay with HCT-116, with SNB-75 and in the assay on SR was > 100 µM (inactive) in each case. Also, the GI50 in the assay on SF-539, in the assay on Malme-3M, with NCI-H23, in the assay on BT-549, in the assay on UACC-62 and in the assay with T47D was > 100 µM (inactive) each time. In addition, the GI50 with HCT-15 was above 100 µM.
For the compound `CC1(C)N=C(N)N=C(N)N1c1cccc(CSc2ccccc2)c1`, the GI50 in the assay on M14 is 0.346 µM (active); with NCI/ADR-RES, > 100 µM (inactive); in the assay on EKVX, 23 µM (inactive); with SK-MEL-5 it was 0.212 µM (active); in the assay on SK-MEL-28, 0.805 µM (active); in the assay on SF-268, 0.0363 µM (active). For the same compound, the GI50 is 0.045 µM (active) with U-251; 0.916 µM (active) in the assay with NCI-H226; 0.141 µM (active) in the assay with MOLT-4; 0.0588 µM (active) with HCT-116; 4.42 µM (inactive) with SNB-75; < 0.01 µM (active) with SR. In addition, the GI50 with SF-539 is 0.461 µM (active); in the assay with Malme-3M, 8.89 µM (inactive); with NCI-H23, 0.619 µM (active); in the assay on BT-549, 15.9 µM (inactive); in the assay with UACC-62 it was 0.192 µM (active); in the assay on T47D, 12.9 µM (inactive). Moreover, the GI50 in the assay on HCT-15 is 50.4 µM.

These data come from ChEMBL document CHEMBL1201862, “PubChem BioAssay data set” (2004).
